Measurements published in patent US8569489B2 (A.B. Intelpharm Limited, priority 2007, dated 2013).
Structures can show the parent of a compound that is named as a salt. Where two headings read alike, the source gives them in different places.

Experiments:
[1] = system: isolated guinea pig ileum (spasmogenic effect of histamine); assay: Isolated guinea pig ileum, suppression of the spasmogenic effect of histamine; type: cell-based; settings: histamine spasm, read-out: Antihistaminic activity, isolated ileum of guinea pig, IC50
Excerpt: Study of the antihistaminic activity of the compounds on which a claim is made was done using known methodologies (Rukovodstvo po eksperimental'nomu izucheniyu novykh farmakologicheskikh veshchestv [Manual on experimental study of new pharmacological substances], Moscow, 2005, p. 489) on isolated guinea pig ileum (suppression of the spasmogenic effect of histamine) and on anesthetized guinea pigs (antagonism in relation to the bronchoconstrictor effect of histamine). In tests on intact animals, substances were administered intravenously (5 minutes before the administration of histamine) and orally (2 hours before the beginning of the study).

[2] = system: H1-histamine receptors (bronchoconstrictor effect of histamine); assay: Anesthetized guinea pigs, antagonism of the bronchoconstrictor effect of histamine (histamine bronchospasm model); type: in vivo, guinea pig; settings: for Antihistaminic activity, guinea pigs in vivo, intravenous administration, ED50 / Antihistaminic activity, guinea pigs in vivo, peroral administration, ED50: anesthetized guinea pigs; for Antihistaminic activity, guinea pigs in vivo, intravenous administration, ED50: 5 minutes before histamine; for Antihistaminic activity, guinea pigs in vivo, peroral administration, ED50: orally 2 hours before the study; for ED50: Cavia porcellus
Experimental: In tests on intact animals, substances were administered intravenously (5 minutes before the administration of histamine) and orally (2 hours before the beginning of the study).

[3] = system: mice; assay: Acute toxicity, mice perorally

| Compound | IC50 [1] [nM] | Acute toxicity, LD50 [3] [mg/kg] | also measured |
| --- | --- | --- | --- |
| Cl.Cl.Cn1c(=O)n(CCCCN2CCN(C(c3ccc(F)cc3)c3ccc(F)cc3)CC2)c(=O)c2[nH]cnc21 [I-u] | 51 | >1000.0 | Antihistaminic activity, guinea pigs in vivo, intravenous administration, ED50 [2]: 0.7 mg/kg; Antihistaminic activity, guinea pigs in vivo, peroral administration, ED50 [2]: >3.0 mg/kg |
| Cl.Cl.Cn1c(=O)c2c(ncn2CC(O)CN2CCN(C(c3ccc(F)cc3)c3ccc(F)cc3)CC2)n(C)c1=O (racemic) [II-j] | – | >1000.0 | – |
| CCOC(=O)N1CCC(=C2c3ccc(Cl)cc3CCc3cccnc32)CC1 [Loratadine, reference compound] | – | – | IC50 ([1]; Cavia porcellus): 472 nM; ED50 ([2]; iv, read-out: Antihistaminic activity, guinea pigs in vivo, intravenous administration, ED50): 0.3 mg/kg; ED50 ([2]; po, read-out: Antihistaminic activity, guinea pigs in vivo, peroral administration, ED50): 0.9 mg/kg; Duration of effective blockade of H1-histamine receptors ([2]; histamine bronchospasm model, oral dose of 3 mg/kg): 18 h |
| Cn1c(=O)n(CC(O)CN2CCN(C(c3ccccc3)c3ccccc3)CC2)c(=O)c2c1ncn2Cc1ccccc1 (stereo not drawn) [I-z, 1-[2-oxy-3-(benzhydryl-4-piperazinyl-1)-propyl]-3-methyl-7-benzylxanthine] | 524 | – | – |
| Cl.Cl.Cn1c(=O)n(CCCN2CCN(C(c3ccc(F)cc3)c3ccc(F)cc3)CC2)c(=O)c2[nH]cnc21 [I-r] | 76 | >1000.0 | Antihistaminic activity, guinea pigs in vivo, peroral administration, ED50 [2]: >3.0 mg/kg |
| Cl.Cl.Cn1c(=O)c2c(ncn2CC(O)CN2CCN(C(c3ccccc3)c3ccccc3)CC2)n(C)c1=O (stereo not drawn) [II-h, 1,3-dimethyl-7-[2-oxy-3-(benzhydryl-4-piperazinyl-1)propyl]xanthine dihydrochloride] | – | >1000.0 | Antihistaminic activity, guinea pigs in vivo, intravenous administration, ED50 [2]: 0.1 mg/kg; Antihistaminic activity, guinea pigs in vivo, peroral administration, ED50 [2]: 2.0 mg/kg |
| Cn1c(=O)n(CCCN2CCN(C(c3ccccc3)c3ccccc3)CC2)c(=O)c2c1ncn2CC(=O)O [I-g] | 244 | – | – |
| Cl.Cl.Cn1c(=O)n(CCN2CCN(C(c3ccc(F)cc3)c3ccc(F)cc3)CC2)c(=O)c2[nH]cnc21 [I-p] | 192 | – | Antihistaminic activity, guinea pigs in vivo, intravenous administration, ED50 [2]: 1.5 mg/kg |
| Cn1cnc2c1c(=O)n(CC(O)CN1CCN(C(c3ccccc3)c3ccccc3)CC1)c(=O)n2C (stereo not drawn) [I-x, 1-[2-oxy-3-(benzhydryl-4-piperazinyl-1)propyl]-3,7-dimethylxanthine dihydrochloride] | 1270 | – | – |
| Cl.Cl.Cn1c(=O)n(CCCN2CCN(C(c3ccccc3)c3ccc(Cl)cc3)CC2)c(=O)c2c1ncn2Cc1ccccc1 (stereo not drawn) [I-c] | 133 | 400.0 | – |
| Cl.Cl.Cn1c(=O)c2c(ncn2CC(O)CN2CCN(C(c3ccccc3)c3ccc(Cl)cc3)CC2)n(C)c1=O (racemic) [II-i] | – | >1000.0 | – |
| Cn1cnc2c1c(=O)n(CC(O)CN1CCN(C(c3ccccc3)c3ccc(Cl)cc3)CC1)c(=O)n2C (stereo not drawn) [I-y, 1-[2-oxy-3-(4^1-chlorbenzhydryl-4-piperazinyl-1)propyl]-3,7-dimethylxanthine] | 123 | – | – |
| Cn1c(=O)n(CCCN2CCN(C(c3ccccc3)c3ccccc3)CC2)c(=O)c2c1ncn2Cc1ccc(F)cc1 [I-e] | 430 | – | – |
| Cl.Cl.Cn1c(=O)n(CCCCCN2CCN(C(c3ccccc3)c3ccccc3)CC2)c(=O)c2c1ncn2Cc1ccccc1 [I-m] | 92 | >200.0 | – |
| Cl.Cl.Cn1c(=O)n(CCCCN2CCN(C(c3ccccc3)c3ccccc3)CC2)c(=O)c2c1ncn2Cc1ccc(F)cc1 [I-j] | 227 | 400.0 | – |
| Cn1c(=O)n(CC(O)CN2CCN(C(c3ccccc3)c3ccc(Cl)cc3)CC2)c(=O)c2c1ncn2Cc1ccccc1 (stereo not drawn) [I-aa, 1-[2-oxy-3-(4^1-chlorbenzhydryl-4-piperazinyl-1)propyl]-3-methyl-7-benzylxanthine] | 536 | – | – |
| Cn1c(=O)n(CCCN2CCN(C(c3ccc(F)cc3)c3ccc(F)cc3)CC2)c(=O)c2c1ncn2Cc1ccc(F)cc1 [I-f] | 514 | – | – |
| Cl.Cl.Cn1c(=O)n(CCCCN2CCN(C(c3ccc(F)cc3)c3ccc(F)cc3)CC2)c(=O)c2c1ncn2Cc1ccc(F)cc1 [I-k] | 267 | 400.0 | – |
